# Assay results reported in ChEMBL document CHEMBL3217680, “Synthesis and antiproliferative activity of some 3-(pyrid-2-yl)-pyrazolines” (Medchemcomm, 2013).
# Activity calls are given as the source filed them. The rule behind the calls is not given here.
# How the values were obtained:
# HT-29 [1] = test: Antiproliferative activity against human HT-29 cells by MTS assay; format: functional, cell-based
# MDA-MB-231 [2] = test: Antiproliferative activity against human MDA-MB-231 cells by MTS assay; format: functional, cell-based
# Tubulin (Homo sapiens) [3] = target: T1, Tubulin (Homo sapiens) (UniProt P68371+Q9H4B7+P0DPH7+P68366+Q13509+Q71U36+P04350+Q3ZCM7+P07437+P68363+Q9BQE3+Q6PEY2+Q13885+Q9BVA1+Q9BUF5); test: Induction of tubulin (unknown origin) polymerization at 5 uM; format: protein-complex assay
# HT-29 [4] = test: Inhibition of microtubule formation in human HT-29 cells at 100 nM using Dm1a tubulin antibodies by confocal microscopy; format: cell-based
# U-251 = test: Growth inhibition of human U251 cells; format: functional
# [5] = Growth inhibition of human UACC257 cells; format: functional; details: UACC-257
# NCI-H322M = test: Growth inhibition of human NCI-H322M cells; format: functional
# M14 = test: Growth inhibition of human M14 cells; format: functional
# [6] = Growth inhibition of human NCI-ADR-RES cells; format: functional
# HT-29 [7] = test: Cell cycle arrest in human HT-29 cells assessed as accumulation at S phase at 5 uM by […]propidium iodide staining-based FACS analysis (reference value: 13.6 %); format: functional
# SNB-19 = test: Growth inhibition of human SNB19 cells; format: functional
# SK-OV-3 = test: Growth inhibition of human SKOV3 cells; format: functional
# Tubulin (Homo sapiens) [8] = target: T1, Tubulin (Homo sapiens); test: Inhibition of tubulin (unknown origin) polymerization at 20 uM; format: protein-complex assay
# Malme-3M = test: Growth inhibition of human MALME-3M cells; format: functional
# HCT-116 = test: Growth inhibition of human HCT116 cells; format: functional
# HT-29 [9] = test: Cell cycle arrest in human HT-29 cells assessed as accumulation at S phase at 100 nM by […]propidium iodide staining-based FACS analysis (reference value: 13.6 %); format: functional
# HT-29 [10] = test: Cell cycle arrest in human HT-29 cells assessed as accumulation at G1 phase at 100 nM by […]propidium iodide staining-based FACS analysis (reference value: 60.2 %); format: functional
# HT-29 [11] = test: Cell cycle arrest in human HT-29 cells assessed as accumulation at G2/M phase at 5 uM by […]propidium iodide staining-based FACS analysis (reference value: 22.8 %); format: functional
# SW-620 = test: Growth inhibition of human SW620 cells; format: functional
# [12] = Growth inhibition of human SF539 cells; format: functional; details: SF-539
# [13] = Growth inhibition of human OVCAR4 cells; format: functional; details: OVCAR-4
# MCF7 = test: Growth inhibition of human MCF7 cells; format: functional
# CCRF-CEM = test: Growth inhibition of human CCRF-CEM cells; format: functional
# MDA-MB-231 [14] = test: Growth inhibition of human MDA-MB-231 cells; format: functional
# SF-268 = test: Growth inhibition of human SF268 cells; format: functional
# HT-29 [15] = test: Inhibition of microtubule formation in human HT-29 cells at 5 uM using Dm1a tubulin antibodies by confocal microscopy; format: cell-based
# [16] = Growth inhibition of human RXF393 cells; format: functional; details: RXF 393
# SK-MEL-2 = test: Growth inhibition of human SK-MEL-2 cells; format: functional
# SK-MEL-5 = test: Growth inhibition of human SK-MEL-5 cells; format: functional
# SN12C = test: Growth inhibition of human SN12C cells; format: functional
# SK-MEL-28 = test: Growth inhibition of human SK-MEL-28 cells; format: functional
# A549 = test: Growth inhibition of human A549/ATCC cells; format: functional
# [17] = Growth inhibition of human HCT15 cells; format: functional; details: HCT-15
# [18] = Growth inhibition of human Hs 578T cells; format: functional
# NCI-H23 = test: Growth inhibition of human NCI-H23 cells; format: functional
# A498 = test: Growth inhibition of human A498 cells; format: functional
# RPMI-8226 = test: Growth inhibition of human RPMI8226 cells; format: functional
# [19] = Growth inhibition of human UACC62 cells; format: functional; details: UACC-62
# [20] = Growth inhibition of human LOXIMVI cells; format: functional; details: LOX IMVI
# T47D = test: Growth inhibition of human T47D cells; format: functional
# NCI-H522 = test: Growth inhibition of human NCI-H522 cells; format: functional
# NCI-H226 = test: Growth inhibition of human NCI-H226 cells; format: functional
# HT-29 [21] = test: Cell cycle arrest in human HT-29 cells assessed as accumulation at G2/M phase at 1 uM by […]propidium iodide staining-based FACS analysis (reference value: 22.8 %); format: functional
# HT-29 [22] = test: Growth inhibition of human HT-29 cells; format: functional
# [23] = Growth inhibition of human OVCAR3 cells; format: functional; details: OVCAR-3
# [24] = Growth inhibition of human OVCAR5 cells; format: functional; details: OVCAR-5
# [25] = Growth inhibition of human OVCAR8 cells; format: functional; details: OVCAR-8
# 786-0 = test: Growth inhibition of human 786-0 cells; format: functional
# PC-3 = test: Growth inhibition of human PC3 cells; format: functional
# HT-29 [26] = test: Cell cycle arrest in human HT-29 cells assessed as accumulation at S phase at 1 uM by […]propidium iodide staining-based FACS analysis (reference value: 13.6 %); format: functional
# DU-145 = test: Growth inhibition of human DU145 cells; format: functional
# CAKI-1 = test: Growth inhibition of human CAKI-1 cells; format: functional
# NCI-H460 = test: Growth inhibition of human NCI-H460 cells; format: functional
# [27] = Growth inhibition of human MOLT4 cells; format: functional; details: MOLT-4
# [28] = Growth inhibition of human EKVX cells; format: functional
# HT-29 [29] = test: Cell cycle arrest in human HT-29 cells assessed as accumulation at G2/M phase at 100 nM by […]propidium iodide staining-based FACS analysis (reference value: 22.8 %); format: functional
# ACHN = test: Growth inhibition of human ACHN cells; format: functional
# SNB-75 = test: Growth inhibition of human SNB75 cells; format: functional
# MDA-MB-468 = test: Growth inhibition of human MDA-MB-468 cells; format: functional
# MDA-MB-435 = test: Growth inhibition of human MDA-MB-435 cells; format: functional
# [30] = Growth inhibition of human UO31 cells; format: functional; details: UO-31
# HL-60(TB) = test: Growth inhibition of human HL-60(TB) cells; format: functional
# [31] = Growth inhibition of human HCC2998 cells; format: functional; details: HCC 2998
# HOP-62 = test: Growth inhibition of human HOP62 cells; format: functional
# HT-29 [32] = test: Cell cycle arrest in human HT-29 cells assessed as accumulation at G1 phase at 5 uM by […]propidium iodide staining-based FACS analysis (reference value: 60.2 %); format: functional
# IGROV-1 = test: Growth inhibition of human IGROV1 cells; format: functional
# [33] = Growth inhibition of human BT549 cells; format: functional; details: BT-549
# SR = test: Growth inhibition of human SR cells; format: functional
# TK-10 = test: Growth inhibition of human TK10 cells; format: functional
# COLO 205 = test: Growth inhibition of human COLO205 cells; format: functional
# [34] = Growth inhibition of human HOP92 cells; format: functional; details: HOP-92
# HT-29 [35] = test: Cell cycle arrest in human HT-29 cells assessed as accumulation at G1 phase at 1 uM by […]propidium iodide staining-based FACS analysis (reference value: 60.2 %); format: functional
# KM12 = test: Growth inhibition of human KM12 cells; format: functional
smiles,measurement,setting,value
NC(=S)N1N=C(c2ccccn2)C[C@H]1c1ccccc1,IC50,HT-29 [1],350000 nM
same,IC50,MDA-MB-231 [2],140000 nM
CC(=O)O[C@H]1C(=O)[C@@]2(C)[C@H]([C@H](OC(=O)c3ccccc3)[C@]3(O)C[C@H](OC(=O)[C@H](O)[C@@H](NC(=O)c4ccccc4)c4ccccc4)C(C)=C1C3(C)C)[C@]1(OC(C)=O)CO[C@@H]1C[C@@H]2O,Activity,Tubulin (Homo sapiens) [3],Active
COc1cc(C2CC(c3ccccn3)=NN2c2ccccc2)cc(OC)c1OC (configuration not stated),IC50,HT-29 [1],26200 nM
same,IC50,MDA-MB-231 [2],4360 nM
COc1cc2c(c(OC)c1OC)-c1ccc(OC)c(=O)cc1[C@@H](NC(C)=O)CC2 [COLCHICINE],IC50,HT-29 [1],8 nM
same,IC50,MDA-MB-231 [2],8 nM
same,inhibition,HT-29 [4],Active
O=C(N1N=C(c2ccccn2)CC1c1ccccc1)C(F)(F)F (configuration not stated),IC50,HT-29 [1],> 500000 nM
same,IC50,MDA-MB-231 [2],> 500000 nM
COc1cc(/C=C/C(=O)c2ccccn2)cc(OC)c1OC,IC50,HT-29 [1],9600 nM
same,IC50,MDA-MB-231 [2],9700 nM
CC(=O)N1N=C(c2ccccn2)CC1c1ccccc1 (configuration not stated),IC50,HT-29 [1],161000 nM
same,IC50,MDA-MB-231 [2],294000 nM
O=C(c1ccccc1)N1N=C(c2ccccn2)C[C@H]1c1ccccc1,IC50,HT-29 [1],> 500000 nM
same,IC50,MDA-MB-231 [2],> 500000 nM
CNC(=S)N1N=C(c2ccccn2)C[C@H]1c1ccccc1,IC50,HT-29 [1],25600 nM
same,IC50,MDA-MB-231 [2],20700 nM
COc1cc(C2CC(c3ccccn3)=NN2C(C)=O)cc(OC)c1OC (configuration not stated),IC50,HT-29 [1],> 500000 nM
same,IC50,MDA-MB-231 [2],52500 nM
COc1cc(C(=O)N2N=C(c3ccccn3)C[C@@H]2c2ccccc2)cc(OC)c1OC,GI50,U-251,868 nM
same,GI50,[5],> 100000 nM
same,GI50,NCI-H322M,> 100000 nM
same,GI50,M14,801 nM
same,GI50,[6],519 nM
same,Activity,HT-29 [7],2%
same,GI50,SNB-19,1890 nM
same,GI50,SK-OV-3,762 nM
same,inhibition,Tubulin (Homo sapiens) [8],Active
same,GI50,Malme-3M,> 100000 nM
same,GI50,HCT-116,586 nM
same,Activity,HT-29 [9],2.8%
same,Activity,HT-29 [10],7.9%
same,Activity,HT-29 [11],94.8%
same,IC50,HT-29 [1],2530 nM
same,GI50,SW-620,567 nM
same,GI50,[12],1060 nM
same,GI50,[13],5950 nM
same,GI50,MCF7,324 nM
same,GI50,CCRF-CEM,2080 nM
same,GI50,MDA-MB-231 [14],989 nM
same,GI50,SF-268,33400 nM
same,inhibition,HT-29 [15],Active
same,GI50,[16],1030 nM
same,GI50,SK-MEL-2,699 nM
same,GI50,SK-MEL-5,432 nM
same,GI50,SN12C,3530 nM
same,GI50,SK-MEL-28,1510 nM
same,GI50,A549,952 nM
same,IC50,MDA-MB-231 [2],690 nM
same,GI50,[17],848 nM
same,GI50,[18],9180 nM
same,GI50,NCI-H23,3450 nM
same,GI50,A498,943 nM
same,GI50,RPMI-8226,66300 nM
same,GI50,[19],541 nM
same,GI50,[20],1130 nM
same,GI50,T47D,> 100000 nM
same,GI50,NCI-H522,688 nM
same,GI50,NCI-H226,1330 nM
same,Activity,HT-29 [21],49.7%
same,GI50,HT-29 [22],431 nM
same,GI50,[23],719 nM
same,GI50,[24],4010 nM
same,GI50,[25],3280 nM
same,GI50,786-0,1540 nM
same,GI50,PC-3,> 100000 nM
same,Activity,HT-29 [26],10.3%
same,GI50,DU-145,4260 nM
same,GI50,CAKI-1,493 nM
same,GI50,NCI-H460,505 nM
same,GI50,[27],4460 nM
same,GI50,[28],> 100000 nM
same,Activity,HT-29 [29],88.8%
same,GI50,ACHN,4290 nM
same,GI50,SNB-75,277 nM
same,GI50,MDA-MB-468,417 nM
same,GI50,MDA-MB-435,273 nM
same,GI50,[30],5010 nM
same,GI50,HL-60(TB),747 nM
same,GI50,[31],2320 nM
same,GI50,HOP-62,1820 nM
same,Activity,HT-29 [32],2.3%
same,GI50,IGROV-1,7130 nM
same,GI50,[33],5130 nM
same,GI50,SR,415 nM
same,GI50,TK-10,> 100000 nM
same,GI50,COLO 205,585 nM
same,GI50,[34],> 100000 nM
same,Activity,HT-29 [35],38.5%
same,GI50,KM12,711 nM
CN1N=C(c2ccccn2)CC1c1ccccc1 (configuration not stated),IC50,HT-29 [1],116000 nM
same,IC50,MDA-MB-231 [2],135000 nM
c1ccc(C2CC(c3ccccn3)=NN2c2ccccc2)cc1 (configuration not stated),IC50,HT-29 [1],53800 nM
same,IC50,MDA-MB-231 [2],60200 nM
COc1cc(C(=O)N2N=C(c3ccccn3)CC2c2cc(OC)c(OC)c(OC)c2)cc(OC)c1OC (configuration not stated),IC50,HT-29 [1],22500 nM
same,IC50,MDA-MB-231 [2],11400 nM
